# Measurements taken from patent publication US20240059703A1 (AMGEN INC., priority 2021, published 2024).
# Read-outs that look alike come from different tables or passages of the source.
# Key:
# [1] = system: MIA PaCa-2 (human pancreatic carcinoma) cells; assay: Cell Viability Assay (CellTiter-Glo), MIA PaCa-2; format: cell-based
# Experimental: Serially-diluted compound or DMSO was added to the cells, and plates were incubated at 37° C., 5% CO2 for 72 h. Cell viability was measured using a CellTiter-Glo® Luminescent Cell Viability Assay kit (Promega) according to the manufacturer's protocol. The luminescence signal of treated samples was normalized to DMSO control, and data were analyzed using a 4-parameter logistic model to calculate IC50 values.
# KRAS G12C = KRAS G12C (Homo sapiens (Human), UniProt P01116, C118A/G12C); assay: 2 h coupled exchange assay; format: biochemical
# Experimental: The term “2 h coupled exchange assay” or “20 h coupled exchange assay” as used herein refers to the assay described in the Section entitled “BIOLOGICAL EVALUATION.”
# [2] = system: A549 (human lung carcinoma) cells; assay: Cell Viability Assay (CellTiter-Glo), A549; format: cell-based
# How it was run: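 MIA PaCa-2 or A549 cells in RPMI 1640 with 10% FBS were seeded at 1.67E+04 cells/mL and incubated overnight. Serially diluted compound was then added for 72 h at 37° C, 5% CO2. Viability read by CellTiter-Glo luminescence, normalized to DMSO, with IC50 from a 4-parameter logistic fit.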
# [3] = Avg 2 h Coupled exchange IC50, 2 h compound pre-incubation
# [4] = Avg 2 h Coupled exchange IC50, 2 h compound pre-incubation, SOS-mediated nucleotide exchange
# Chain of KRAS G12C (P01116 other isoform, or with tags, fused parts or gaps G12C/C118A): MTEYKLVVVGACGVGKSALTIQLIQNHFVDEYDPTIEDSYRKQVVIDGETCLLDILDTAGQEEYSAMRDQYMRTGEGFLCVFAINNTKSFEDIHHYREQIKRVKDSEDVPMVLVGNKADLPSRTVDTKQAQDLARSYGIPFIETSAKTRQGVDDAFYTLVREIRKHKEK
"IC50 ([1]; Homo sapiens, MIA PaCa-2, 72 h)",IC50 (KRAS G12C; [3]),"IC50 ([2]; Homo sapiens, A549, 72 h)",IC50 (KRAS G12C; [4]),IC50 ([1]; 72 h),"IC50 (KRAS G12C; read-out: Avg 2 h Coupled exchange IC50, 2 h compound pre-incubation, SOS-mediated nucleotide exchange)",IC50 ([2]; 72 h),SMILES
1150 nM,227 nM,8250 nM,–,–,–,–,"C=CC(=O)N1CC2(CCN(c3nc4c(c(-c5ccc(F)cc5Cl)c3C#N)COC(c3scnc3C)C4)C2)C1 [Example 23-20, (7R)-4-(2-chloro-4-fluorophenyl)-7-(4-methyl-1,3-thiazol-5-yl)-2-(2-(2-propenoyl)-2,6-diazaspiro[3.4]octan-6-yl)-7,8-dihydro-5H-pyrano[4,3-b]pyridine-3-carbonitrile (7S)-4-(2-chloro-4-fluorophenyl)-7-(4-methyl-1,3-thiazol-5-yl)-2-(2-(2-propenoyl)-2,6-diazaspiro[3.4]octan-6-yl)-7,8-dihydro-5H-pyrano[4,3-b]pyridine-3-carbonitrile]"
2080 nM,–,> 5000 nM,282 nM,–,–,–,"C=CC(=O)N1CC2(CCN(c3nc4cc(F)ccc4c(-c4c(C)ccc5[nH]ncc45)c3C)[C@H]2C)C1 (single isomer, unassigned) [Example 2-58]"
792 nM,–,> 5000 nM,88 nM,–,–,–,"C=CC(=O)N1CC2(CCN(c3cc4c(c(-c5c(C)ccc6[nH]ncc56)c3C#N)COCC4)C2)C1 [Example 2-95, 8-(5-methyl-1H-indazol-4-yl)-6-(2-(2-propenoyl)-2,6-diazaspiro[3.4]octan-6-yl)-3,4-dihydro-1H-2-benzopyran-7-carbonitrile]"
58 nM,–,> 5000 nM,17 nM,–,–,–,"C=CC(=O)N1CC2(CCN(c3nc4c(c(-c5c(C)ccc6[nH]ncc56)c3C#N)CC(C)(C)C4)[C@@H]2C)C1 (atropisomer, axis not shown; (P)) [Example 13-54, (P)-6,6-dimethyl-4-(5-methyl-1H-indazol-4-yl)-2-((5R)-5-methyl-2-(2-propenoyl)-2,6-diazaspiro[3.4]octan-6-yl)-6,7-dihydro-5H-cyclopenta[b]pyridine-3-carbonitrile]"
103 nM,–,> 5000 nM,51 nM,–,–,–,"C=CC(=O)N1CC2(CCN(c3nc4c(c(-c5c(C)ccc6[nH]ncc56)c3C#N)COC3(CCC3)C4)C2)C1 [Example 13-98, 2′-(2-acryloyl-2,6-diazaspiro[3.4]octan-6-yl)-4′-(5-methyl-1H-indazol-4-yl)-5′,8′-dihydrospiro[cyclobutane-1,7′-pyrano[4,3-b]pyridine]-3′-carbonitrile]"
–,–,> 5000 nM,31 nM,208 nM,–,–,"C=CC(=O)N1CC2(CCN(c3nc4c(c(-c5c(C)ccc6cnn(C)c56)c3C#N)CCC(C)(C)C4)C2)C1 (single isomer, unassigned) [Example 13-145, 4-(1,6-dimethyl-1H-indazol-7-yl)-7,7-dimethyl-2-(2-(2-propenoyl)-2,6-diazaspiro[3.4]octan-6-yl)-5,6,7,8-tetrahydro-3-quinolinecarbonitrile]"
–,–,–,–,246 nM,71 nM,> 5000 nM,"C=CC(=O)N1CC2(CCN(c3nc4c(c(-c5c(C)ccc6[nH]ncc56)c3C#N)CC[C@@H](C(F)(F)F)C4)C2)C1 (racemic) [Example 13-10, (7R)-4-(5-methyl-1H-indazol-4-yl)-2-(2-(2-propenoyl)-2,6-diazaspiro[3.4]octan-6-yl)-7-(trifluoromethyl)-5,6,7,8-tetrahydro-3-quinoline-carbonitrile|(7S)-4-(5-methyl-1H-indazol-4-yL)-2-(2-(2-propenoyl)-2,6-diazaspiro[3.4]octan-6-yl)-7-(trifluoromethyl)-5,6,7,8-tetrahydro-3-quinolinecarbonitrile]"
106 nM,–,> 5000 nM,66 nM,–,–,–,"C=CC(=O)N1CC2(CCN(c3nc4c(c(-c5cccc6cc(O)ccc56)c3C)CCC(C)(C)C4)C2)C1 (single isomer, unassigned) [Example 2-15, (P)-1-(6-(4-(6-hydroxy-1-naphthalenyl)-3,7,7-trimethyl-5,6,7,8-tetrahydro-2-quinolinyl)-2,6-diazaspiro[3.4]octan-2-yl)-2-propen-1-one]"
–,131 nM,> 25000 nM,–,56 nM,–,–,"C=CC(=O)N1CC2(CCN(c3nc4c(c(-c5c(C)ccc6[nH]ncc56)c3C)CCN(C(C)C)C4)C2)C1 (single isomer, unassigned) [Example 18-19, (P)-1-(6-(3-methyl-4-(5-methyl-1H-indazol-4-yl)-7-(2-propanyl)-5,6,7,8-tetrahydro-1,7-naphthyridin-2-yl)-2,6-diazaspiro[3.4]octan-2-yl)-2-propane-1-one]"
221 nM,–,> 5000 nM,15 nM,–,–,–,"C=CC(=O)N1CC2(CCN(c3nc4c(c(-c5cc(O)ccc5C)c3C#N)C[C@H]3C[C@@H]4C3(C)C)C2)C1 (single isomer, unassigned) [Example 2-69]"
–,–,> 5000 nM,111 nM,93 nM,–,–,"C=CC(=O)N1CC2(CCN(c3nc4c(c(-c5c(N)c(Cl)cc(Cl)c5F)c3C#N)COC(C)(C)C4)C2)C1 (single isomer, unassigned) [Example 13-155, 4-(2-amino-3,5-dichloro-6-fluorophenyl)-7,7-dimethyl-2-(2-(2-propenoyl)-2,6-diazaspiro[3.4]octan-6-yl)-7,8-dihydro-5H-pyrano[4,3-b]pyridine-3-carbonitrile]"
725 nM,182 nM,> 5000 nM,–,–,–,–,"C=CC(=O)N1CC2(CCN(c3nc4c(c(-c5c(F)cccc5Cl)c3C#N)CCC(c3scnc3C)=C4)C2)C1 [Example 23-22, 4-(2-chloro-6-fluorophenyl)-7-(4-methyl-1,3-thiazol-5-yl)-2-(2-(2-propenoyl)-2,6-diazaspiro[3.4]octan-6-yl)-5,6-dihydro-3-quinolinecarbonitrile]"
537 nM,–,4240 nM,67 nM,–,–,–,"C=CC(=O)N1CC2(CCN(c3nc4c(c(-c5c(C)ccc6[nH]ncc56)c3C#N)CC3(CC4)CC3)C2)C1 [Example 13-11, 4′-(5-methyl-1H-indazol-4-yl)-2′-(2-(2-propenoyl)-2,6-diazaspiro[3.4]octan-6-yl)-7′,8′-dihydro-5′H-spiro[cyclopropane-1,6′-quinoline]-3′-carbonitrile]"
3350 nM,687 nM,15400 nM,–,–,–,–,"C=CC(=O)N1CC2(CCN(c3nc4c(c(-c5cccc(F)c5O)c3C)CC[C@H](c3c(C)cnn3C)C4)C2)C1 [Example 14-95, 1-(6-((7S)-7-(1,4-dimethyl-1H-pyrazol-5-yl)-4-(3-fluoro-2-hydroxyphenyl)-3-methyl-5,6,7,8-tetrahydro-2-quinolinyl)-2,6-diazaspiro[3,4]octan-2-yl)-2-propen-1-one]"
89 nM,86 nM,> 5000 nM,–,–,–,–,"C=CC(=O)N1CC2(CCN(c3nc4c(c(-c5cc(O)ccc5F)c3C)CCN(c3scnc3C)C4)C2)C1 [Example 18-13, 1-(6-(4-(2-fluoro-5-hydroxyphenyl)-3-methyl-7-(4-methyl-1,3-thiazol-5-yl)-5,6,7,8-tetrahydro-1,7-naphthyridin-2-yl)-2,6-diazaspiro[3.4]octan-2-yl)-2-propen-1-one]"
–,–,–,9 nM,68 nM,–,> 5000 nM,"C=CC(=O)N1CC2(CCN(c3nc4c(c(-c5cc(O)cc6ccccc56)c3C#N)[C@H]3CC[C@@H]4C3)C2)C1 (single isomer, unassigned) [Example 2-39]"
11800 nM,–,20800 nM,5170 nM,–,–,–,"C=CC(=O)N1CC2(CCN(c3nc4c(c(-c5cccc(C)c5Cl)n3)CCCC4)C2)C1 [Example 1-27, 1-(6-(4-(2-chloro-3-methylphenyl)-5,6,7,8-tetrahydro-2-quinazolinyl)-2,6-diazaspiro[3.4]octan-2-yl)-2-propen-1-one]"
